Reference: ChEMBL document CHEMBL5104132, “Identification of sugar-containing natural products that interact with i-motif DNA” (Bioorg Med Chem Lett, 2022)

Legend:
Format in all cases: nucleic-acid assay
Quadruplex DNA [1] = assay: Binding affinity to human telomeric IKF1 G4 quadruplex DNA assessed as change in melting temperature at 20 uM at pH 7.4 by FRET assay
i-motif DNA [2] = assay: Binding affinity to human telomeric 1ELN i-motif DNA assessed as change in melting temperature at 20 uM at pH 7.4 by FRET assay
Quadruplex DNA [3] = assay: Binding affinity to human ILPR G4 quadruplex DNA assessed as change in melting temperature at 20 uM at pH 7.4 by FRET assay
i-motif DNA [4] = assay: Binding affinity to human ILPR i-motif DNA assessed as change in melting temperature at 20 uM at pH 7.4 by FRET assay
i-motif DNA [5] = assay: Binding affinity to human telomeric 1ELN i-motif DNA assessed as change in melting temperature at 20 uM at pH 5.5 by FRET assay
i-motif DNA [6] = assay: Binding affinity to human ILPR i-motif DNA assessed as change in melting temperature at 20 uM at pH 5.5 by FRET assay
dsDNA [7] = assay: Binding affinity to human 1BNA double stranded DNA assessed as change in melting temperature at 20 uM at pH 7.4 by FRET assay
i-motif DNA [8] = assay: Displacement of thiazole orange from human ILPR i-motif DNA at 100 equiv. at pH 5.5 by fluorescent intercalator displacement assay
i-motif DNA [9] = assay: Displacement of thiazole orange from human ILPR i-motif DNA at 10 equiv. at pH 5.5 by fluorescent intercalator displacement assay
i-motif DNA [10] = assay: Displacement of thiazole orange from human ILPR i-motif DNA at 100 equiv. at pH 7.4 by fluorescent intercalator displacement assay
i-motif DNA [11] = assay: Displacement of thiazole orange from human telomeric 1ELN i-motif DNA at 100 equiv. at pH 5.5 by fluorescent intercalator displacement assay
Quadruplex DNA [12] = assay: Displacement of thiazole orange from human ILPR G4 quadruplex DNA at 10 equiv. at pH 7.4 by fluorescent intercalator displacement assay
Quadruplex DNA [13] = assay: Displacement of thiazole orange from human telomeric IKF1 G4 quadruplex DNA at 100 equiv. at pH 7.4 by fluorescent intercalator displacement assay
Quadruplex DNA [14] = assay: Displacement of thiazole orange from human telomeric IKF1 G4 quadruplex DNA at 10 equiv. at pH 7.4 by fluorescent intercalator displacement assay
i-motif DNA [15] = assay: Displacement of thiazole orange from human telomeric 1ELN i-motif DNA at 100 equiv. at pH 7.4 by fluorescent intercalator displacement assay
i-motif DNA [16] = assay: Displacement of thiazole orange from human telomeric 1ELN i-motif DNA at 10 equiv. at pH 7.4 by fluorescent intercalator displacement assay
dsDNA [17] = assay: Displacement of thiazole orange from human 1BNA double stranded DNA at 100 equiv. at pH 7.4 by fluorescent intercalator displacement assay
i-motif DNA [18] = assay: Displacement of thiazole orange from human telomeric 1ELN i-motif DNA at 10 equiv. at pH 5.5 by fluorescent intercalator displacement assay
i-motif DNA [19] = assay: Displacement of thiazole orange from human ILPR i-motif DNA at 10 equiv. at pH 7.4 by fluorescent intercalator displacement assay
dsDNA [20] = assay: Displacement of thiazole orange from human 1BNA double stranded DNA at 10 equiv. at pH 7.4 by fluorescent intercalator displacement assay
Quadruplex DNA [21] = assay: Displacement of thiazole orange from human ILPR G4 quadruplex DNA at 100 equiv. at pH 7.4 by fluorescent intercalator displacement assay
dsDNA [22] = assay: Binding affinity to human double stranded DNA by SPR analysis
i-motif DNA [23] = assay: Binding affinity to human telomeric i-motif DNA by SPR analysis
i-motif DNA [24] = assay: Binding affinity to human c-Myc promoter i-motif DNA by SPR analysis

Row | SMILES | ΔTm (Quadruplex DNA [1]) [°C] | ΔTm (i-motif DNA [2]) [°C] | ΔTm (Quadruplex DNA [3]) [°C] | ΔTm (i-motif DNA [4]) [°C] | ΔTm (i-motif DNA [5]) [°C] | ΔTm (i-motif DNA [6]) [°C] | ΔTm (dsDNA [7]) [°C] | Activity (i-motif DNA [8]) [%] | Activity (i-motif DNA [9]) [%] | Activity (i-motif DNA [10]) [%] | Activity (i-motif DNA [11]) [%] | Activity (Quadruplex DNA [12]) [%] | Activity (Quadruplex DNA [13]) [%] | Activity (Quadruplex DNA [14]) [%] | Activity (i-motif DNA [15]) [%] | Activity (i-motif DNA [16]) [%] | Activity (dsDNA [17]) [%] | Activity (i-motif DNA [18]) [%] | Activity (i-motif DNA [19]) [%] | Activity (dsDNA [20]) [%] | further results
1 | O=c1ccc2cc(O[C@@H]3O[C@H](CO)[C@@H](O)[C@H](O)[C@H]3O)c(O)cc2o1 | -7.6 | -6.4 | -2.4 | -2.6 | -0.4 | 0 | -2.7 |  |  |  |  |  |  |  |  |  |  |  |  |  | 
2 | O=C(O)[C@H]1O[C@@H](Oc2cc3oc(-c4ccccc4)cc(=O)c3c(O)c2O)[C@H](O)[C@@H](O)[C@@H]1O | -1.8 | -3.9 | -3.8 | -2.6 | -0.4 | -0.3 | -2.5 | 35.3 | 9.5 | 38.5 | 36.5 | 4.9 | 46.3 | 24 | -91.2 | -3.8 | 25.3 | 12.2 | 23.9 | 8.2 | Activity (Quadruplex DNA [21]): 17.7%
3 | O=C(O)C1=CO[C@@H](O[C@@H]2O[C@H](CO)[C@@H](O)[C@H](O)[C@H]2O)[C@@H]2C(CO)=CC[C@H]12 | -4.7 | -2.5 | -3.6 | -2.2 | -0.5 | -0.3 | -4.8 | 25.3 | -3.5 | 22 | 22.9 | 4.1 | 25.2 | 23 | -37.8 | 2.6 | 9.6 | -10.2 | 12.3 | 6.4 | Activity (Quadruplex DNA [21]): 1.4%
4 | COC(=O)C1=CO[C@@H](O[C@@H]2O[C@H](CO)[C@@H](O)[C@H](O)[C@H]2O)[C@@H]2C(CO)=CC[C@H]12 | -6.1 | -1.8 | -2.9 | -1.8 | -0.5 | -0.1 | -3.5 | 27.9 | 7.2 | 31.8 | 32.3 | -6.7 | 25.7 | 23.1 | -84.1 | -32 | 11.2 | -9.5 | 21.2 | 8.5 | Activity (Quadruplex DNA [21]): 1.8%
5 | NC[C@H]1O[C@H](O[C@H]2[C@H](O)[C@@H](O[C@H]3O[C@H](CO)[C@@H](O)[C@H](N)[C@H]3O)[C@H](N)C[C@@H]2N)[C@H](N)C[C@@H]1O [TOBRAMYCIN] |  |  |  |  |  |  |  |  |  |  |  |  |  |  |  |  |  |  |  |  | Kd (dsDNA [22]): 18 µM; Kd (i-motif DNA [23]): 17 µM; Kd (i-motif DNA [24]): 13 µM
6 | OC[C@H]1O[C@@H](O[C@@H]2[C@@H](CO)O[C@](O)(CO)[C@H]2O)[C@H](O)[C@@H](O)[C@H]1O | -4 | -3.7 | -4.6 | -2.7 | -0.4 | -0.3 | -2.7 | 23.1 | -5 | 34.7 | 20.2 | 0.9 | 26.1 | 21.4 | -68 | -54 | 9 | -28.4 | 26.7 | 4.3 | Activity (Quadruplex DNA [21]): 0.4%
7 | O=c1c(-c2ccc(O)cc2)coc2cc(O[C@@H]3O[C@H](CO)[C@@H](O)[C@H](O)[C@H]3O)cc(O)c12 | -6.6 | -5.4 | -4.7 | -2.4 | -0.8 | -0.4 | -3 | 23.5 | 5.3 | 31.8 | 19.3 | 1.6 | 28.7 | 20.8 | -288 | 16.2 | 14.5 | 0.6 | 24.2 | 6.2 | Activity (Quadruplex DNA [21]): 6.4%
8 | O=c1c(-c2ccc(O)cc2)coc2cc(O[C@@H]3O[C@H](CO)[C@@H](O)[C@H](O)[C@H]3O)ccc12 | -2.4 | 0 | -1.8 | -2.4 | -0.3 | -0.1 | -2.3 | 22.6 | -2.5 | 28.9 | 20.3 | 2.6 | 29 | 20.9 | -154 | 14.9 | 10.9 | -4.2 | 20 | 7 | Activity (Quadruplex DNA [21]): 2.4%
